Measured values published in PubChem BioAssay AID488890 (Southern Research Specialized Biocontainment Screening …, 2010).
Results filed as inconclusive are left out. Activity calls are given as the source filed them. The rule behind the calls is not given here.

System: Mycobacterium tuberculosis non-replicating, growth inhibition
Experiment: growth inhibition of non-replicating M. tuberculosis (AID 488890)

Row | Structure (SMILES) | IC50
1 | Cc1cc(S(=O)(=O)c2ccc([N+](=O)[O-])cn2)ccc1Br | 0.15 µM
2 | CCCCN(C/C=C/c1ccccc1OC)Cc1ccccc1 | 8.78 µM
3 | O=C(N/N=C(\c1ccccc1)c1cccnc1)c1cccc(F)c1 | 3.88 µM
4 | Cc1nnc(N/N=C/c2ccc(Br)cc2)n1N | 1.29 µM
5 | O=C(CCc1ccccc1)N/N=C/c1cc(Br)ccc1O | 0.44 µM
6 | O=C(C/C=N\OCc1ccc([N+](=O)[O-])cc1)Nc1ccc(Cl)cc1 | 5.29 µM
7 | S=C(Nc1ccc2c(c1)OCO2)Nc1ccc2c(c1)OCO2 | 12.8 µM (inactive)
8 | O=C(NC(=S)Nn1cnc2c(cnn2-c2ccccc2)c1=O)c1ccccc1 | 22.2 µM (inactive)
9 | Cc1cccc(-c2nnc3sc(-c4ccccc4C)nn23)c1 | 22.4 µM (inactive)
10 | O=C(Nc1nccs1)c1ccc2ccccc2c1 | 13.8 µM (inactive)
11 | COc1cccc(/C=N/N2C(=O)CSC2=S)c1O | 23.9 µM (inactive)
12 | CCOC(=O)C1CCN(c2nc3cc(OC)ccc3cc2C#N)CC1 | 11.1 µM (inactive)
13 | O=C(NCc1ccc2c(c1)OCO2)c1ccc(Cl)s1 | 1.73 µM
14 | COc1ccc(/C=C2\Sc3ccc(C(=O)NCCN4CCCCCC4)cc3N(C)C2=O)cc1 | 12.7 µM (inactive)
15 | O=C(CCSc1nnc(-c2ccncc2)o1)Nc1ccc(Cl)cc1 | 14.7 µM (inactive)
16 | Nc1ccc(Nc2ccccc2)cc1 | 6 µM
17 | Nc1nonc1C(=O)N/N=C/c1ccc([N+](=O)[O-])o1 | 5.6 µM
18 | COc1cc(CNC2CCCC2)cc(Cl)c1OCc1ccc(F)cc1 | 17.5 µM (inactive)
19 | CCc1ccc(C(=O)NC2CCCCC2)s1 | 0.94 µM
20 | O=c1c2cc(Cl)ccc2oc2nc3n(c(=O)c12)CCCS3 | 3 µM
21 | CCn1cc(C(=O)O)c(=O)c2cc(F)c(N3CCN(C(=S)NC(=O)c4ccccc4)CC3)cc21 | 16.8 µM (inactive)
22 | O=C1CC(=O)CC(c2ccccc2)C1 | 29.8 µM (inactive)
23 | On1onc2c3cc(-c4ccccc4)nc3ccc21 | 0.31 µM
24 | COc1ccc(-c2cc(O)cc(O)c2)cc1 | 6.15 µM

Row | Structure (SMILES) | IC50
25 | O=C(c1cccc2cccc(O)c12)N1CCCCC1 | 3.82 µM
26 | O=C(Nc1ncc([N+](=O)[O-])s1)c1ccc2c(c1)OCO2 | 4.75 µM
27 | COc1cccc(NC(=O)c2ccc(C(=O)c3ccccc3)o2)c1 | 3.36 µM
28 | O=c1c2c([N+](=O)[O-])cc([N+](=O)[O-])cc2sn1-c1ccc(Br)cc1 | 18.5 µM (inactive)
29 | O=c1cc(-c2ccncc2)oc2c1ccc1ccccc12 | 22.3 µM (inactive)
30 | CCOC(=O)c1cc(-c2c(Cl)cccc2Cl)no1 | 2.22 µM
31 | CCCOc1ccc(-c2nc(C#N)c(NCCCn3ccnc3)o2)cc1 | 17 µM (inactive)
32 | COc1cc(OC)cc(OC(=O)c2ccc3c(=O)n4c(nc3c2)CCC4)c1 | 4.95 µM
33 | CCCn1nnnc1NC(=O)COc1ccc(Br)cc1 | 4.62 µM
34 | O=C(N/N=C\c1ccc([N+](=O)[O-])o1)c1cncc(Br)c1 | 8.55 µM
35 | Nc1ccccc1Nc1ccccc1 | 1.81 µM
36 | CS(=O)(=O)c1sc(C#N)c2c1C(=O)CC(c1ccccc1)C2 (stereo unspecified) | 0.82 µM
37 | O=C(O)c1ccccc1C(=O)NNc1ccc(F)cc1 | 12.4 µM (inactive)
38 | c1ccc(-c2noc(CC3CCCCC3)n2)nc1 | 1.18 µM
39 | CCOC(=O)COc1ccc2c(c1)C(=O)CC(C)(c1cccnc1)O2 (stereo unspecified) | 10.2 µM (inactive)
40 | Cc1ccc(-c2nnc(COC(=O)c3cccs3)o2)cc1 | 13.8 µM (inactive)
41 | CCOC(=O)Cc1csc(NC(=O)COc2ccc3c(c2)CCC3)n1 | 13.5 µM (inactive)
42 | CCN1CSC(=S)N(Cc2ccc(OC)cc2)C1 | 18.5 µM (inactive)
43 | CCC(CC)c1nnc(NC(=O)c2ccc3ccccc3n2)s1 | 4.02 µM
44 | COc1ccc(C(=O)C2CCCN(C(=O)c3ccc(CSC)o3)C2)cc1F (stereo unspecified) | 42.2 µM (inactive)
45 | CCCCCC/C(=N/O)c1ccccn1 | 11.6 µM (inactive)
46 | Cc1cc(C)n(-c2nc(SCCN(C)C)c3c4c(sc3n2)CCCC4)n1 | 6.69 µM
47 | COc1cccc(OCc2nnc(-c3cccs3)o2)c1 | 1.57 µM
48 | O=c1c2ccc(Cl)cc2nc(-c2cccc(C(F)(F)F)c2)n1O | 0.33 µM

Row | Structure (SMILES) | IC50
49 | COc1cccc(CNCCc2c[nH]c3ccccc23)c1OCc1ccc(F)cc1 | 16.9 µM (inactive)
50 | CCOc1cccc2cc(C(=O)NCc3ccccc3)c(=N)oc12 | 10.2 µM (inactive)
51 | O=c1c2cc(Br)ccc2nc(-c2ccc([N+](=O)[O-])cc2)n1O | 0.99 µM
52 | NC(N)=N/N=C/c1cc([N+](=O)[O-])ccc1O | 4.29 µM
53 | COC(=O)COc1ccc(S(=O)(=O)N2CCCCCC2)cc1 | 4.19 µM
54 | O=C1C(Nc2ccccc2)=C/C(=N/S(=O)(=O)c2cccs2)c2ccccc21 | 12 µM (inactive)
55 | Cc1cc(NC(=O)c2sccc2C)n(-c2nc3ccccc3[nH]2)n1 | 8.81 µM
56 | O=C(N/N=C\c1ccc([N+](=O)[O-])s1)C1COc2ccccc2O1 (stereo unspecified) | 4.94 µM
57 | CN1C(=O)/C(=C/c2cccc(Cl)c2)Sc2ccc(C(=O)N3CCCC3)cc21 | 22 µM (inactive)
58 | Cc1cc(C(=O)COc2cccc3cccnc23)c(C)n1C | 5.1 µM
59 | CC(C)CSc1nnc2c3ccccc3n(C)c2n1 | 26.3 µM (inactive)
60 | CC(C)(C)NC(=O)C(=O)NNC(=O)c1ccc(C(C)(C)C)cc1 | 5.82 µM
61 | Cc1ccccc1C1=N/C(=C/c2cccnc2)C(=O)O1 | 19.9 µM (inactive)
62 | COc1ccc(C(=O)OCn2nnc3ccccc3c2=O)cc1 | 28.6 µM (inactive)
63 | CC1N(C)c2cccc3cccc(c23)N1C | 36.8 µM (inactive)
64 | O=S(=O)(c1ccc(OCC2CO2)cc1)c1ccc(OCC2CO2)cc1 (stereo unspecified) | 19.7 µM (inactive)
65 | COC(=O)C1=C(C(=O)OC)C(c2cc(Cl)ccc2O)c2sc(=O)[nH]c2S1 (stereo unspecified) | 34.9 µM (inactive)
66 | CNc1nc(-c2ccccn2)nnc1-c1ccccc1 | 16.2 µM (inactive)
67 | Cc1ccc(OC(=O)CCS(=O)(=O)c2ccc(C)cc2)cc1 | 11.8 µM (inactive)
68 | CCOCCOC(=O)c1ccc(NC(=O)C2COc3ccccc3O2)cc1 (stereo unspecified) | 4.16 µM
69 | COc1ccc2nc(C)cc(N/N=C/c3ccccc3)c2c1 | 2.6 µM
70 | Cc1ccc2[nH]c(C)c(CCNC(=O)c3cc4cc([N+](=O)[O-])ccc4oc3=O)c2c1 | 9.15 µM
71 | CCCCCCCNC(=O)C1(CC2CC(c3cccc(Br)c3)=NO2)CCNCC1 (stereo unspecified) | 13.7 µM (inactive)
72 | COc1ccc(-c2nnc(NC(=O)C3=COCCO3)o2)cc1 | 27.1 µM (inactive)

Row | Structure (SMILES) | IC50
73 | Cn1nnnc1N=N/C(=N/Nc1ccccc1)c1ccccc1 | 6.47 µM
74 | CCc1ccc(N2NC(=O)/C(=C/C=C/c3ccco3)C2=O)cc1 | 3.65 µM
75 | O=C(Nc1ccc(Cl)c(Cl)c1)O/N=C/c1ccncc1 | 15.5 µM (inactive)
76 | O=C(N/N=C/c1cc([N+](=O)[O-])ccc1O)C12CC3CC(CC(C3)C1)C2 | 1.15 µM
77 | O=C(O)c1ccc(-n2nc(C(F)(F)F)c3c2CCCC3)cc1 | 34.2 µM (inactive)
78 | COC(=O)C(C)Oc1ccc2cc(-c3ccccc3)c(=O)oc2c1 (stereo unspecified) | 4.96 µM
79 | Clc1ccc(SCCCCN2CCNCC2)cc1 | 39.3 µM (inactive)
80 | O=C(N/N=C\c1ccc([N+](=O)[O-])o1)C1COc2ccccc2O1 (stereo unspecified) | 2.27 µM
81 | C/C(=N/NC(=O)c1cc2ccccc2cc1O)C1C(=O)c2ccccc2C1=O | 1.24 µM
82 | Cc1ccc(OCC(=O)N/N=C/c2ccc([N+](=O)[O-])o2)cc1 | 2.89 µM
83 | O=C(Nc1nnc(-c2ccco2)o1)c1cccc2ccccc12 | 19.1 µM (inactive)
84 | O=C(c1ccc(-c2ccc([N+](=O)[O-])cc2)o1)N1CCCCCCC1 | 11.6 µM (inactive)
85 | CCC(C)c1ccc(OCCn2ccnc2)cc1 (stereo unspecified) | 10.4 µM (inactive)
86 | Cc1[nH]nc2c1C(c1ccc(-c3ccc(Cl)cc3)o1)C(C#N)=C(N)O2 (stereo unspecified) | 2.24 µM
87 | O=C(CN1CCN(c2ccc([N+](=O)[O-])cc2)CC1)Nc1ccccn1 | 30.8 µM (inactive)
88 | O=C(NC(=S)NCCc1ccccc1)c1ccccc1 | 10.4 µM (inactive)
89 | CC(C)=CCN1CCN(Cc2cn(C(C)C)c3ccccc23)CC1CCO (stereo unspecified) | 22.1 µM (inactive)
90 | COc1cc(N=c2ssnc2Cl)cc(OC)c1OC | 17.9 µM (inactive)
91 | O=C(COc1ccccc1)Nc1ccc(Cl)cn1 | 7.51 µM
92 | CCOC(=O)C1=C(c2ccccc2)NC(N)=NC1c1ccc(OCc2ccc(C(=O)OC)cc2)cc1 (stereo unspecified) | 5.85 µM
93 | CC(C)CCC1=NN(C(=O)c2ccco2)C(O)(C(F)(F)F)C1 (stereo unspecified) | 0.94 µM
94 | COc1cccc(-c2nnc(NC(=O)c3ccc(S(=O)(=O)N4CCOCC4)cc3)o2)c1 | 18.7 µM (inactive)
95 | Cc1cc(N/N=C/c2ccccc2O)c2ccccc2n1 | 10.1 µM (inactive)
96 | Cc1cccc(NC(=O)c2n[nH]c([N+](=O)[O-])c2Br)c1C | 7.96 µM

Row | Structure (SMILES) | IC50
97 | CCC1CCCCN1S(=O)(=O)c1ccc(C(=O)Nc2nnc(-c3cccs3)o2)cc1 (stereo unspecified) | 11 µM (inactive)
98 | O=C(OCc1ccc([N+](=O)[O-])cc1)c1ccc2ccccc2n1 | 4.44 µM
99 | C=CCn1c(O)c(C(C)=Nc2ccc(C(=O)OCC)cc2)c(=O)[nH]c1=O | 7.05 µM
100 | CC(NC(=O)COc1ccccc1F)C1CC2CCC1C2 (stereo unspecified) | 0.42 µM
101 | O=C(Oc1cccc2cccnc12)c1cccc([N+](=O)[O-])c1 | 3 µM
102 | CC(C)OC(=O)CCCCCN1C(=O)CSC1=S | 1.94 µM
103 | FC(F)(F)c1nnc2ccc(Cl)nn12 | 1.56 µM
104 | O=C(Nc1ccccc1F)c1ccc([N+](=O)[O-])s1 | 0.78 µM
105 | Cc1cc(C)n2[nH]c(=O)c(N=Nc3cccc(Cl)c3)c2n1 | 4.13 µM
106 | Cc1ccc2c(C)ccc(O)c2n1 | 5.18 µM
107 | COC(=O)c1cc(/C=C/c2ccccc2)on1 | 2.18 µM
108 | Cc1cc(C)c2c(=O)n(CC(=O)Nc3cccc(Cl)c3C)sc2n1 | 7.18 µM
109 | O=C(Nc1nc(-c2cccs2)cs1)c1ccc([N+](=O)[O-])o1 | 2.08 µM
110 | Cc1ccc(-c2noc(CCC(=O)Nc3cccc(C#N)c3)n2)cc1 | 17.4 µM (inactive)
111 | N#Cc1nc(-c2cccs2)oc1NCCc1ccccc1 | 4.77 µM
112 | CC12CC3CC(C)(C1)CC(C(=O)N1CCCC1)(C3)C2 | 24 µM (inactive)
113 | COc1cccc(/C=N/NC(=O)c2ccoc2C)c1O | 1.93 µM
114 | CN1C(=O)CC(Sc2ccccc2C(=O)O)C1=O (stereo unspecified) | 23.6 µM (inactive)
115 | CCOC(=O)C(=CNNc1cccc(Cl)c1)C(=O)OCC | 18.7 µM (inactive)
116 | CCOc1ccc(-c2nnc(NC(=O)c3ccc(OCC(C)C)c(OC)c3)o2)cc1 | 24.1 µM (inactive)
